Experimental data as given in ChEMBL document CHEMBL6109125, “A New Protractor Potentiates Glucagon-Like Peptide 1 with Slow-Release Depot and Long-Term Action” (J Med Chem, 2025).
Activity calls are given as the source filed them. No cut-off for these calls is given here.

How the values were obtained:
[1] = Selectivity ratio of EC50 for agonist activity at GLP-1R (unknown origin) expressed in HEK293 cells co-expressing CRE-Luc assessed as increase in intracellular cAMP accumulation in presence of 2% HSA to EC50 for agonist activity at GLP-1R (unknown origin) expressed in HEK293 cells co-expressing CRE-Luc assessed as increase in intracellular cAMP accumulation; assay type: cell-based
[2] = molecular target: T1, Glucagon-like peptide 1 receptor (Homo sapiens, UniProt P43220); experiment: Agonist activity at GLP-1R (unknown origin) expressed in HEK293 cells co-expressing CRE-Luc assessed as increase in intracellular cAMP accumulation by luciferase based assay; assay type: functional, cell-based; conditions: read-out: EC50
[3] = molecular target: T1, Glucagon-like peptide 1 receptor; experiment: Agonist activity at GLP-1R (unknown origin) expressed in HEK293 cells co-expressing CRE-Luc assessed as increase in intracellular cAMP accumulation in presence of 2% HSA by luciferase based assay; assay type: functional, cell-based; conditions: read-out: EC50
[4] = molecular target: T1, Glucagon-like peptide 1 receptor; experiment: Agonist activity at GLP-1R (unknown origin) expressed in HEK293 cells co-expressing CRE-Luc assessed as increase in intracellular cAMP accumulation in presence of 10% FBS by luciferase based assay; assay type: functional, cell-based; conditions: read-out: EC50
[5] = Stability in Sprague-Dawley rat plasma assessed as drug degradation by measuring half life measured after 96 hrs by RP-HPLC analysis; assay type: ADME, cell-free
[6] = Stability in Sprague-Dawley rat plasma assessed as compound remaining measured after 96 hrs by RP-HPLC analysis; assay type: ADME, cell-free; conditions: read-out: Stability
Albumin = Albumin (Homo sapiens, UniProt P02768); experiment: Binding affinity to human serum albumin immobilized on AR2G biosensor assessed as dissociation constant incubated for 3 mins by BLI assay; assay type: ADME
[7] = AUClast in Sprague-Dawley rat at 1 mg/kg, iv measured up to 48 hrs by LC-MS/MS analysis; assay type: ADME, organism-based; conditions: in vivo
Dipeptidyl peptidase 4 [8] = molecular target: T2, Dipeptidyl peptidase 4 (Rattus norvegicus, UniProt P14740); experiment: Stability in Sprague-Dawley rat plasma assessed as DPP4-mediated drug degradation by measuring Lys(CBB) metabolite formation measured after 96 hrs by mass spectrometry; assay type: ADME, cell-free
[9] = Apparent volume of distribution in Sprague-Dawley rat at 1 mg/kg, iv measured up to 48 hrs by LC-MS/MS analysis; assay type: ADME, organism-based; conditions: in vivo, read-out: Vz
Mus musculus [10] = experiment: Anti-hyperglycemic activity in well-fed type-2 diabetes db/db mouse assessed as blood glucose level at 100 nmol/kg, sc administered on every 48 hrs; assay type: functional
Mus musculus [11] = experiment: Anti-hyperglycemic activity in type-2 diabetes db/db mouse assessed as regulation of blood glucose level administered subcutaneously measured up to 96 hrs; assay type: functional, organism-based; conditions: dose 3-600 nmol/kg, route sc
[12] = Clearance in Sprague-Dawley rat at 1 mg/kg, iv measured up to 48 hrs by LC-MS/MS analysis; assay type: ADME, organism-based; conditions: in vivo
[13] = Clearance in BALB/c mouse at 0.5 mg/kg, iv measured up to 48 hrs by LC-MS/MS analysis; assay type: ADME, organism-based; conditions: in vivo
Mus musculus [14] = experiment: Anti-hyperglycemic activity in type-2 diabetes db/db mouse assessed as reduction in food intake at 100 nmol/kg, sc measured for 48 hrs; assay type: functional, organism-based
[15] = MRT in Sprague-Dawley rat at 1 mg/kg, sc measured up to 48 hrs by LC-MS/MS analysis; assay type: ADME, organism-based; conditions: in vivo
[16] = Binding affinity to collagen type I (unknown origin) immobilized on AR2G biosensor assessed as dissociation constant incubated for 3 mins by BLI assay; parameters: species or system Homo sapiens
[17] = AUClast in Sprague-Dawley rat at 1 mg/kg, sc measured up to 48 hrs by LC-MS/MS analysis; assay type: ADME, organism-based; conditions: in vivo
[18] = Half life in Sprague-Dawley rat at 1 mg/kg, sc measured up to 48 hrs by LC-MS/MS analysis; assay type: ADME, organism-based; conditions: in vivo
[19] = Tmax in Sprague-Dawley rat at 1 mg/kg, sc measured up to 48 hrs by LC-MS/MS analysis; assay type: ADME, organism-based; conditions: in vivo
[20] = Apparent volume of distribution in BALB/c mouse at 0.5 mg/kg, iv measured up to 48 hrs by LC-MS/MS analysis; assay type: ADME, organism-based; conditions: in vivo, read-out: Vz
Mus musculus [21] = experiment: Anti-hyperglycemic activity in 16 hr-fasted type-2 diabetes db/db mouse at 100 nmol/kg, sc pretreated for 0.5 hrs followed by glucose administration measured for 2 hrs by OGTT method; assay type: functional, organism-based; conditions: time 2.5 hrs
[22] = AUClast in BALB/c mouse at 0.5 mg/kg, iv measured up to 48 hrs by LC-MS/MS analysis; assay type: ADME, organism-based; conditions: in vivo
[23] = Half life in BALB/c mouse at 0.5 mg/kg, sc measured up to 48 hrs by LC-MS/MS analysis; assay type: ADME, organism-based; conditions: in vivo
[24] = MRT in BALB/c mouse at 0.5 mg/kg, sc measured up to 48 hrs by LC-MS/MS analysis; assay type: ADME, organism-based; conditions: in vivo
[25] = Tmax in BALB/c mouse at 0.5 mg/kg, sc measured up to 48 hrs by LC-MS/MS analysis; assay type: ADME, organism-based; conditions: in vivo
Dipeptidyl peptidase 4 [26] = molecular target: T2, Dipeptidyl peptidase 4; experiment: Stability in Sprague-Dawley rat plasma assessed as DPP4-mediated drug degradation by measuring Lys(CBB)Gly metabolite formation measured after 96 hrs by mass spectrometry; assay type: ADME, cell-free
Mus musculus [27] = experiment: Anti-hyperglycemic activity in 16 hr-fasted type-2 diabetes db/db mouse assessed as homeostasis of blood glucose level at 100 nmol/kg, sc pretreated for 0.5 hrs followed by glucose administration measured for 2 hrs; assay type: functional, organism-based; conditions: time 2.5 hrs
[28] = AUClast in BALB/c mouse at 0.5 mg/kg, sc measured up to 48 hrs by LC-MS/MS analysis; assay type: ADME, organism-based; conditions: in vivo
Mus musculus [29] = experiment: Anti-hyperglycemic activity in type-2 diabetes db/db mouse assessed as blood glucose level at 3 to 600 nmol/kg, sc measured up to 48 hrs; assay type: functional; conditions: dose 3-600 nmol/kg
Mus musculus [30] = experiment: Anti-hyperglycemic activity in type-2 diabetes db/db mouse assessed as regulation of blood glucose level at 3 to 600 nmol/kg, sc measured up to 96 hrs; assay type: functional, organism-based

T1 sequence (P43220 whole entry): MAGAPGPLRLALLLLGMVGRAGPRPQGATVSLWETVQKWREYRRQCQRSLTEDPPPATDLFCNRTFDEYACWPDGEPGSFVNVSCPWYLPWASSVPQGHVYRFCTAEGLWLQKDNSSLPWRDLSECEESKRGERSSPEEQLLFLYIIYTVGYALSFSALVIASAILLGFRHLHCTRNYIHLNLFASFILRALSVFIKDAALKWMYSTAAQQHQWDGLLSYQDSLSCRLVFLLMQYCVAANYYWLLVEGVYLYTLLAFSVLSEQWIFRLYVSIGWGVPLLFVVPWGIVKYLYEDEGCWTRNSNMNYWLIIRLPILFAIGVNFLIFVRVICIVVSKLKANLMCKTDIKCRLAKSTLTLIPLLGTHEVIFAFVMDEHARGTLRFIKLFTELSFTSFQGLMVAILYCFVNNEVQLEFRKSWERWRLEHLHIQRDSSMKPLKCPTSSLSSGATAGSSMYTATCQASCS
T2 sequence (P14740 whole entry): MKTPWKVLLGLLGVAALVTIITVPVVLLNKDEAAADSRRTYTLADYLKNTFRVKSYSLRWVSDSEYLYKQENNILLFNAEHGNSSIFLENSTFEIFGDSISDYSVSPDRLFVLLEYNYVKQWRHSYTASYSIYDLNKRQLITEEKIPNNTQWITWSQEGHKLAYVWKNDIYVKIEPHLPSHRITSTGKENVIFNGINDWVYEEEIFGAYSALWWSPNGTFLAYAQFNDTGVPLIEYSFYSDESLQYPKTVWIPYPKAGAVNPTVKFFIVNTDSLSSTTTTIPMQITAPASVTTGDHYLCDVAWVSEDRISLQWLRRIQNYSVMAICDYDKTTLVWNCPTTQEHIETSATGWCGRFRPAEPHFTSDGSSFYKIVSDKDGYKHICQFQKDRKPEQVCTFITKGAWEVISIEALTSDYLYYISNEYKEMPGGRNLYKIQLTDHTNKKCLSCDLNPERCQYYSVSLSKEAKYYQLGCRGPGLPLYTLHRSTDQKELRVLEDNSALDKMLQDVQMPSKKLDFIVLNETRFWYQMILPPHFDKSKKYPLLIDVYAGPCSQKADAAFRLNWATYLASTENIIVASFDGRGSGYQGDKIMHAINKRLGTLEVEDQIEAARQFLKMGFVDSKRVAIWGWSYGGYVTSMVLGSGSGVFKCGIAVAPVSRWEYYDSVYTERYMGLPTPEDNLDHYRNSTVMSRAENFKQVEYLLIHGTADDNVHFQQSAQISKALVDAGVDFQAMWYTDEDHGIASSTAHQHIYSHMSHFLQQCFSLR
Albumin, sequence (P02768 whole entry): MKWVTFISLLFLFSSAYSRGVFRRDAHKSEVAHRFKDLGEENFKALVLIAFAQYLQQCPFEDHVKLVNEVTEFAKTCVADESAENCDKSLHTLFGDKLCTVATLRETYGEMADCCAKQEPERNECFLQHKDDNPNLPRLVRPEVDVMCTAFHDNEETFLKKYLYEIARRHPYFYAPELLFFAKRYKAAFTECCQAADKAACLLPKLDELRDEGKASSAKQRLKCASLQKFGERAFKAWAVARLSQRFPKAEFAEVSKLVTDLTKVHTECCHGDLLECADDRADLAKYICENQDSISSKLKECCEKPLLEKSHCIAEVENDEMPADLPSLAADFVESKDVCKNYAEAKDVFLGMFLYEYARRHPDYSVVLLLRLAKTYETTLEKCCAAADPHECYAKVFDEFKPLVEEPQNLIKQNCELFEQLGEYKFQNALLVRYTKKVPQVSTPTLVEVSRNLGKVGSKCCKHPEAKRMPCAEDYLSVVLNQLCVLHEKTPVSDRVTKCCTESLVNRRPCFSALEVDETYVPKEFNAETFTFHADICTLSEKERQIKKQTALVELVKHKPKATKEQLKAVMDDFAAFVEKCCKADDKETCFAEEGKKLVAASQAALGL

Compound	Ratio EC50 [1]	EC50 [2] [pM]	EC50 [3] [pM]	EC50 [4] [pM]	half-life [5] [h]	remaining at 96 h [6] [%]	Kd (Albumin) [pM]	Vd [9] [L/kg]	Activity (Mus musculus [10]) [mM]	Vd [20] [L/kg]	Activity (Mus musculus [21])	Activity (Mus musculus [27])	EC50 (Mus musculus [30]) [nmol/kg]	other results
CCOc1ccc(Nc2ccc(/C(=C3C=C/C(=[N+](\CC)Cc4cccc(S(=O)(=O)[O-])c4)C=C\3C)c3ccc(N(CC)Cc4cccc(S(=O)(=O)NCCCCCC(=O)NCCOCCOCCOCCOCCOCCOCCOCCOCCC(=O)NCCCC[C@H](NC(=O)[C@@H](NC(=O)[C@H](CC(C)C)NC(=O)[C@H](Cc5c[nH]c6ccccc56)NC(=O)[C@H](C)NC(=O)[C@@H](NC(=O)[C@H](Cc5ccccc5)NC(=O)[C@H](CCC(=O)O)NC(=O)[C@H](CCCCN)NC(=O)[C@H](C)NC(=O)[C@H](C)NC(=O)[C@H](CCC(N)=O)NC(=O)CNC(=O)[C@H](CCC(=O)O)NC(=O)[C@H](CC(C)C)NC(=O)[C@H](Cc5ccc(O)cc5)NC(=O)[C@H](CO)NC(=O)[C@H](CO)NC(=O)[C@@H](NC(=O)[C@H](CC(=O)O)NC(=O)[C@H](CO)NC(=O)[C@@H](NC(=O)[C@H](Cc5ccccc5)NC(=O)[C@@H](NC(=O)CNC(=O)[C@H](CCC(=O)O)NC(=O)[C@H](CO)NC(=O)[C@@H](N)Cc5c[nH]cn5)[C@@H](C)O)[C@@H](C)O)C(C)C)[C@@H](C)CC)C(C)C)C(=O)NCC(=O)N[C@@H](CCCNC(=N)N)C(N)=O)c4)cc3C)cc2)cc1	2.55	0.33	0.84	3.96	–	–	–	–	–	–	–	–	–	–
H-HGEGTFTSDVSSYLEGQAAREFIAWLVRGRG-NH2	1.34	62.8	84.2	16.1	0.833	0	–	–	–	–	–	–	–	–
CCOc1ccc(Nc2ccc(/C(=C3C=C/C(=[N+](/CC)Cc4cccc(S(=O)(=O)[O-])c4)C=C/3C)c3ccc(N(CC)Cc4cccc(S(=O)(=O)O)c4)cc3C)cc2)cc1 [BRILLIANT BLUE G FREE ACID]	–	–	–	–	–	–	320000	–	–	–	–	–	–	–
CCOc1ccc(Nc2ccc(/C(=C3C=C/C(=[N+](\CC)Cc4ccc(S(=O)(=O)[O-])cc4)C=C/3C)c3ccc(N(CC)Cc4cccc(S(=O)(=O)NCCCCCC(=O)N[C@H](C(=O)O)C(=O)NCCCC[C@H](NC(=O)[C@H](C)NC(=O)[C@H](C)NC(=O)[C@H](CCC(N)=O)NC(=O)CNC(=O)[C@H](CCC(=O)O)NC(=O)[C@H](CC(C)C)NC(=O)[C@H](Cc5ccc(O)cc5)NC(=O)[C@H](CO)NC(=O)[C@H](CO)NC(=O)[C@@H](NC(=O)[C@H](CC(=O)O)NC(=O)[C@H](CO)NC(=O)[C@@H](NC(=O)[C@H](Cc5ccccc5)NC(=O)[C@@H](NC(=O)CNC(=O)[C@H](CCC(=O)O)NC(=O)C(C)(C)NC(=O)[C@@H](N)Cc5c[nH]cn5)[C@@H](C)O)[C@@H](C)O)C(C)C)C(=O)N[C@@H](CCC(=O)O)C(=O)N[C@@H](Cc5ccccc5)C(=O)N[C@H](C(=O)N[C@@H](C)C(=O)N[C@@H](Cc5c[nH]c6ccccc56)C(=O)N[C@@H](CC(C)C)C(=O)N[C@H](C(=O)N[C@@H](CCCNC(=N)N)C(=O)NCC(=O)N[C@@H](CCCNC(=N)N)C(=O)NCC(=O)O)C(C)C)[C@@H](C)CC)c4)cc3C)cc2)cc1	7.91	1.12	8.86	4.08	–	–	–	–	–	–	–	–	–	–
CCOc1ccc(Nc2ccc(/C(=C3C=C/C(=[N+](\CC)Cc4cccc(S(=O)(=O)[O-])c4)C=C\3C)c3ccc(N(CC)Cc4cccc(S(=O)(=O)NCCCCCC(=O)NCCOCCOCCOCCOCCOCCOCCOCCOCCC(=O)NCCCC[C@H](NC(=O)[C@@H](NC(=O)[C@H](CC(C)C)NC(=O)[C@H](Cc5c[nH]c6ccccc56)NC(=O)[C@H](C)NC(=O)[C@@H](NC(=O)[C@H](Cc5ccccc5)NC(=O)[C@H](CCC(=O)O)NC(=O)[C@H](CCCNC(=N)N)NC(=O)[C@H](C)NC(=O)[C@H](C)NC(=O)[C@H](CCC(N)=O)NC(=O)CNC(=O)[C@H](CCC(=O)O)NC(=O)[C@H](CC(C)C)NC(=O)[C@H](Cc5ccc(O)cc5)NC(=O)[C@H](CO)NC(=O)[C@H](CO)NC(=O)[C@@H](NC(=O)[C@H](CC(=O)O)NC(=O)[C@H](CO)NC(=O)[C@@H](NC(=O)[C@H](Cc5ccccc5)NC(=O)[C@@H](NC(=O)CNC(=O)[C@H](CCC(=O)O)NC(=O)CNC(=O)[C@@H](N)Cc5c[nH]cn5)[C@@H](C)O)[C@@H](C)O)C(C)C)[C@@H](C)CC)C(C)C)C(=O)NCC(=O)N[C@@H](CCCNC(=N)N)C(N)=O)c4)cc3C)cc2)cc1	5.38	0.37	1.99	0.21	24	40	520000	0.15	<10	0.056	Active	Active	30	AUC [7]: 67.28 h/µg/mL; Drug metabolism (Dipeptidyl peptidase 4 [8]): metabolite_detected; Activity (Mus musculus [11]): Dose-dependent-effect; clearance [12]: 0.25 mL/min/kg; clearance [13]: 0.0667 mL/min/kg; Activity (Mus musculus [14]): Active; MRT [15]: 18 h; Kd [16]: 390000 pM; AUC [17]: 28.81 h/µg/mL; half-life [18]: 32 h; Tmax [19]: 12 h; AUC [22]: 111.886 h/µg/mL; half-life [23]: 32 h; MRT [24]: 18.1 h; Tmax [25]: 12 h; Drug metabolism (Dipeptidyl peptidase 4 [26]): metabolite_detected; AUC [28]: 123.884 h/µg/mL; Activity (Mus musculus [29]): <10 mM
CC[C@H](C)[C@H](NC(=O)[C@H](Cc1ccccc1)NC(=O)[C@H](CCC(=O)O)NC(=O)[C@H](CCCCNC(=O)COCCOCCNC(=O)COCCOCCNC(=O)CC[C@H](NC(=O)CCCCCCCCCCCCCCCCC(=O)O)C(=O)O)NC(=O)[C@H](C)NC(=O)[C@H](C)NC(=O)[C@H](CCC(N)=O)NC(=O)CNC(=O)[C@H](CCC(=O)O)NC(=O)[C@H](CC(C)C)NC(=O)[C@H](Cc1ccc(O)cc1)NC(=O)[C@H](CO)NC(=O)[C@H](CO)NC(=O)[C@@H](NC(=O)[C@H](CC(=O)O)NC(=O)[C@H](CO)NC(=O)[C@@H](NC(=O)[C@H](Cc1ccccc1)NC(=O)[C@@H](NC(=O)CNC(=O)[C@H](CCC(=O)O)NC(=O)C(C)(C)NC(=O)[C@@H](N)Cc1cnc[nH]1)[C@@H](C)O)[C@@H](C)O)C(C)C)C(=O)N[C@@H](C)C(=O)N[C@@H](Cc1c[nH]c2ccccc12)C(=O)N[C@@H](CC(C)C)C(=O)N[C@H](C(=O)N[C@@H](CCCNC(=N)N)C(=O)NCC(=O)N[C@@H](CCCNC(=N)N)C(=O)NCC(=O)O)C(C)C	–	–	–	–	–	–	–	0.163	<10	0.083	Active	Active	2	–
